The values that follow come from patent US20160303245A1, “FATTY ACID DERIVATIVES OF DIMERIC INHIBITORS OF PSD-95” (UNIVERSITY OF COPENHAGEN, priority 2013, published 2016).

Like-named read-outs stand apart in the source and are kept apart here.

The target of data set [1] is T1, HSA (Homo sapiens, UniProt P02768).
T1 construct: purchased Sovicell GMBH, Leipzig, Germany
Put plainly: Transil XL HSA binding assay (immobilized HSA, unbound compound quantified by RP-HPLC). On the procedure:
The synthesized FA-linked dimeric ligands (1-12) were evaluated for their HSA affinity using a Transil^XL HSA binding assay kit (Sovicell GMBH, Leipzig, Germany). […] The assay kit consisted of prefilled wells with increasing concentrations of immobilized HSA as well as two control wells without HSA. The HSA had been immobilized in a random fashion to ensure that all binding sites on HSA were available. To conduct the assay, the wells were incubated with a known concentration of the tested compounds, and the unbound amount of compound was quantified using analytical RP-HPLC (C8 column). The fraction of unbound drug (fu) for each data point was calculated from the RP-HPLC data by comparison to a control sample without HSA. […] In eq. 1, it is assumed that the concentration of drug-bound HSA ([HSA-D]) is much lower than the total concentration of HSA in the well ([HSA-D]<<cHSA). The assay kit has been designed such that the assumption is valid for compounds where fu>1%. The calculated KD-values were used to calculate fb at physiological concentration of HSA (588 μM) using equation 2.

Data set [2] can be described thus: In vitro plasma stability assay (modified, GnHCl before TCA precipitation). The class given is in vitro ADME. The following applies: human plasma; for half-life: 1st order decay fit. The protocol: The plasma-stability of 1, 4, 7 and 13 was evaluated in a modified version of an in vitro plasma stability assay (Bach et al, Angew. Chem, Int. Ed, 2009, 48, 9685-9689). In the original procedure, the investigated compound was incubated in human plasma. Samples were then taken out at appropriate timepoints and the serum proteins were removed by precipitation with trichloroacetic acid (TCA) followed by analysis of the supernatants by RP-HPLC. The obtained peak areas were normalized to the amount at T0 and fitted to a 1st order decay model to calculate the half-life. When this method was applied to the FA-linked dimeric ligands, sample recoveries were low (<5%). This was caused by the removal of the FA-linked dimeric ligands as HSA-bound complexes during the TCA precipitation. Therefore dissolution of the sample in solid guanidine hydrochloride (GnHCI) to a final concentration of 6M was performed prior to the TCA precipitation. The purpose of this was to unfold the HSA in the sample, releasing the FA-linked dimeric ligand.

Data set [3] in a line: In vivo pharmacokinetics, blood concentration by LC-MS/MS after single s.c. bolus injection. Further details: species or system male Wistar rats. Particulars: sc, rat. An excerpt: To determine the pharmacokinetic properties of FA-linked compounds we measured the concentration of selected compounds in blood by LC-MS/MS following a single subcutaneous (s.c.) bolus injection in male Wistar rats (FIG. 5). From this, it was apparent that all FA-linked dimeric ligands have longer T1/2 and greater Tmax than dimeric ligand without FA (UCCB01-125) (Table 4 and FIG. 5). […] The increased Tmax is explained by a prolonged absorption from the injection site. Overall, these properties enable administration by s.c.depot injections and thereby slow and consistent release of compound into the blood, whereby fewer administrations are needed to maintain pharmaceutical relevant blood concentrations.

Data set [4] has as its target PSD-95 PDZ1-2 (Homo sapiens, UniProt P78352). In words: In vitro fluorescence polarization (FP) competition binding assay, in TBS and modified with 1% HSA. On the procedure: Affinity to PSD-95 was measured using an in vitro fluorescence polarization (FP) assay as described by Bach et al (PNAS USA, 2012, 109, 3317-3322). First, a saturation binding curve was obtained to determine KD values for the interaction between a dimeric fluorescent probe and PSD-95 PDZ1-2. Increasing concentrations of PDZ1-2 were added to a constant concentration (0.5 nM) of the probe. The fluorescence polarization of the samples was measured at excitation/emission wavelengths of 635/670 nm and the FP values were fitted to a one site binding model using the program GraphPad Prism. […] The FP values were fitted to a one site competition (variable slope) model in GraphPad Prism. The resulting IC50 were converted to competition inhibition constants, Ki values, as described (Nikolovska-Coleska et al, Anal Biochem, 2004, 332, 261-273). The modified FP assay was conducted as described above with 1% HSA in the assay. The synthesized FA-linked dimeric ligands were evaluated for their affinity to PSD-95 PDZ1-2 in the FP assay. […] We first measured the affinities using a simple tris-buffered saline (TBS) buffer (Table 2, FIG. 3A); but furthermore, we investigated if HSA influenced the ability of the FA-linked dimers to bind PSD95 PDZ1-2 by conducting the FP assay with HSA present in the assay buffer (Table 2, FIG. 3B). […] For a traditional small-molecule drug, it is commonly accepted that the unbound fraction of the drug is free to diffuse across membranes and exerts the physiological effect by interacting with its target (Berezhkovskiy et al, J Pharm Sci 2007, 96, 249-257). I.e. if the drug is bound to another molecule, then it cannot interact with the target at the same time.
On the technique in general: Fluorescence polarisation rises when a labelled molecule tumbles more slowly, as on binding a larger partner.

[5] abbreviates: dose 15 mg/kg, mean ± SEM, n = 3.
[6] abbreviates: FP data (TBS+HSA) corrected for calculated fu, read-out: Ki(PSD95), free ligand.
[7] abbreviates: FP in TBS with 1% HSA (~150 μM), mean ± SEM, n ≧ 3, read-out: Ki(PSD95) + HSA.
[8] abbreviates: FP in TBS, mean ± SEM, n ≧ 3, read-out: Ki(PSD95).
Setting [9] is: dose 10 mg/kg, mean ± SEM, n = 3.
[10] abbreviates: dose 3 mg/kg, mean ± SEM, n = 3.
The mark [11] stands for this setting: dose 30 mg/kg, mean ± SEM, n = 3.

Chain of PSD-95 PDZ1-2 (P78352 61-249 limits assumed): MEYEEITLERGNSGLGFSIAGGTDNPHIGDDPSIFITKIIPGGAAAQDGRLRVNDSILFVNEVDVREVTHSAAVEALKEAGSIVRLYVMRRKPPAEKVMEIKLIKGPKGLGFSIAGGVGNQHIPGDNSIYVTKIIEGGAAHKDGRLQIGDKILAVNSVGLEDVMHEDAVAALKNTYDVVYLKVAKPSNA
T1 sequence (P02768 25-609): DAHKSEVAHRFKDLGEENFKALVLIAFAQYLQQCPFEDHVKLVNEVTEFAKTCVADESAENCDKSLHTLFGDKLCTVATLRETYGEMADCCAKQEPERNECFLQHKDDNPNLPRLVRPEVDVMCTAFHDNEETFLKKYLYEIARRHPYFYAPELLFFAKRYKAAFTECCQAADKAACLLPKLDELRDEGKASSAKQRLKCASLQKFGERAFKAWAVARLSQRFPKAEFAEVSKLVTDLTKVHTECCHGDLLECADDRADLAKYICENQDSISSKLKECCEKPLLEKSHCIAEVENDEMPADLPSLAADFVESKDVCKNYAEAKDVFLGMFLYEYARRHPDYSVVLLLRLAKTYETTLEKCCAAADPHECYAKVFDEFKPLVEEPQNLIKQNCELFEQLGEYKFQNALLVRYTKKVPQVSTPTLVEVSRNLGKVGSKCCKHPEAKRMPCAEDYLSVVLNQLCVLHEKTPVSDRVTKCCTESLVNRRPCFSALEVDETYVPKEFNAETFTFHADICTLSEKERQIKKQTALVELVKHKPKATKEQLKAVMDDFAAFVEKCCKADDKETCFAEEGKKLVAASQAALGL

In data set [1], `CCCCCCCCCCCC(=O)NCCCC(=O)N(CCOCCOCCC(=O)N[C@H](C(=O)N[C@@H](CCC(=O)O)C(=O)N[C@H](C(=O)N[C@@H](C)C(=O)N[C@H](C(=O)O)C(C)C)[C@@H](C)O)[C@@H](C)CC)CCOCCOCCC(=O)N[C@H](C(=O)N[C@@H](CCC(=O)O)C(=O)N[C@H](C(=O)N[C@@H](C)C(=O)N[C@H](C(=O)O)C(C)C)[C@@H](C)O)[C@@H](C)CC` [Compound 1] showed a free fraction (fraction unbound) of 0.151. Further, in data set [2], the “In vitro plasma stability” value is given as “degraded faster” and the half-life is 23.6 h. In addition, in data set [3] (setting [5]), the Tmax was 0.833 ± 0.167 h and the half-life is 0.768 ± 0.045 h.

Regarding `CC[C@H](C)[C@H](NC(=O)CCOCCOCCN(CCOCCOCCC(=O)N[C@H](C(=O)N[C@@H](CCC(=O)O)C(=O)N[C@H](C(=O)N[C@@H](C)C(=O)N[C@H](C(=O)O)C(C)C)[C@@H](C)O)[C@@H](C)CC)C(=O)CCCNC(=O)CCCCCCCCCCCCCCCCC(=O)O)C(=O)N[C@@H](CCC(=O)O)C(=O)N[C@H](C(=O)N[C@@H](C)C(=O)N[C@H](C(=O)O)C(C)C)[C@@H](C)O` [Compound 4], the Kd in data set [1] amounted to 19.4 ± 3.6 µM. The fraction unbound in data set [1] was 0.115. The Ki was 0.654 ± 0.034 µM in data set [4] (setting [6]), 5.72 ± 0.298 µM in data set [4] (setting [7]) and 0.0114 ± 0.0006 µM in data set [4] (setting [8]). In data set [2], the “In vitro plasma stability” value is on record as “highly stable”. The half-life in data set [2] is more than 24 h; in data set [3] (setting [5]), 8.13 ± 0.5 h; in data set [3] (single s.c. bolus injection), more than 8 h. Further, in data set [3] (setting [5]), the Tmax amounted to 4.67 ± 0.66 h.

The compound `CCCCCCCCCCCCCCCCCC(=O)N[C@@H](CCC(=O)N(CCOCCOCCC(=O)N[C@H](C(=O)N[C@@H](CCC(=O)O)C(=O)N[C@H](C(=O)N[C@@H](C)C(=O)N[C@H](C(=O)O)C(C)C)[C@@H](C)O)[C@@H](C)CC)CCOCCOCCC(=O)N[C@H](C(=O)N[C@@H](CCC(=O)O)C(=O)N[C@H](C(=O)N[C@@H](C)C(=O)N[C@H](C(=O)O)C(C)C)[C@@H](C)O)[C@@H](C)CC)C(=O)O` [Compound 7] registered a Kd in data set [1] of 6.8 ± 1.2 µM. The compound further came in with a fraction unbound in data set [1] of 0.043. The Ki in data set [4] (setting [6]) is 0.0591 µM; in data set [4] (setting [7]) it was 1.39 ± 0.184 µM; in data set [4] (setting [8]), 0.017 µM. Besides, in data set [2], the “In vitro plasma stability” value is listed as “highly stable”. Further, the half-life was more than 24 h in data set [2], 10.7 ± 0.58 h in data set [3] (setting [9]) and more than 8 h in data set [3] (single s.c. bolus injection). In addition, the Tmax in data set [3] (setting [9]) came to 6 ± 1.15 h.

For `CCCCCCCCCCCCCCCCCC(=O)NCCCC(=O)N(CCOCCOCCC(=O)N[C@H](C(=O)N[C@@H](CCC(=O)O)C(=O)N[C@H](C(=O)N[C@@H](CC(=O)O)C(=O)N[C@H](C(=O)O)C(C)C)[C@@H](C)O)[C@@H](C)CC)CCOCCOCCC(=O)N[C@H](C(=O)N[C@@H](CCC(=O)O)C(=O)N[C@H](C(=O)N[C@@H](CC(=O)O)C(=O)N[C@H](C(=O)O)C(C)C)[C@@H](C)O)[C@@H](C)CC` [Compound 13], in data set [1], the equilibrium dissociation constant (Kd) stood at 83 µM and the fraction unbound came to 0.356. Moreover, in data set [2], the “In vitro plasma stability” value is recorded as “highly stable” and the half-life is more than 24 h. Besides, in data set [3] (setting [9]), the Tmax came to 8 h and the half-life is 16.3 ± 2.81 h. The compound also displayed a half-life in data set [3] (single s.c. bolus injection) of more than 8 h.

In data set [1], `CC[C@H](C)[C@H](NC(=O)CCOCCOCCOCCOCCOCCC(=O)N[C@H](C(=O)N[C@@H](CCC(=O)O)C(=O)N[C@H](C(=O)N[C@@H](C)C(=O)N[C@H](C(=O)O)C(C)C)[C@@H](C)O)[C@@H](C)CC)C(=O)N[C@@H](CCC(=O)O)C(=O)N[C@H](C(=O)N[C@@H](C)C(=O)N[C@H](C(=O)O)C(C)C)[C@@H](C)O` [UCCB01-125, reference compound] yielded a Kd of 154 µM and an unbound share (fraction unbound) of 0.507. The half-life in data set [2] is 1.7 h. In addition, in data set [3] (setting [10]), the Tmax is 0.5 h and the half-life was 0.561 ± 0.101 h. Moreover, in data set [3] (setting [11]), the Tmax was 0.5 h and the half-life is 0.45 ± 0.068 h.

Usually fraction unbound stands for free concentration divided by total concentration. Read a high fraction unbound as much free substance. One may read the half-life as the time needed for the level to fall by half in the phase considered. Low readings indicate rapid decline, high ones slow decline. For orientation: Tmax means the time at which the peak concentration occurs. In general, Kd refers to the free concentration of one partner at which half of the binding sites on the other are occupied at equilibrium, for simple one-to-one binding. High values mean weaker binding, low ones tighter binding. As usually defined, the Ki is the equilibrium dissociation constant of an inhibitor or competing ligand from its target.
